Measurements from patent EP0554004A2, “Cephem compounds and antibacterial agents” (KATAYAMA SEIYAKUSYO CO. Ltd., priority 1992, dated 1993).
Converted amounts (≈) assume the structure as drawn.

Tests used:
[1] = test system: clinically isolated MRSA; experiment: Antibacterial potency against clinically isolated MRSA (Test Example 2); format: cell-based, methicillin-resistant Staphylococcus aureus; conditions: Staphylococcus aureus, 52 strains of clinically isolated MRSA
Description: A test on the antibacterial potency against clinically isolated MRSA was conducted in the following way.
52 strains of clinically isolated MRSA were used, and MIC was determined for each of the strains according to the standard method of the Japan Chemotherapical Society as in Test Example 1. The minimum growth inhibitory concentration which inhibited growth of 50% of the strains tested was expressed as MIC50 (µg/ml), and the minimum growth inhibitory concentration which inhibited growth of 90% of the strains was expressed as MIC90 (µg/ml).
In this test, FMOX (flomoxef), IPM/CS (imipenem/cilastatin), CMZ (cefmetazole), MINO (minocycline) and DMPPC (methicillin) were used as control agents.

[2] = test system: Bacillus subtilis ATCC 6633; experiment: MIC against standard strains (Test Example 1); format: cell-based; conditions: ATCC6633, Muller-Hinton agar, 37°C overnight
Description: (§1) By using each test strain cultured overnight at 37°C in a Muller-Hinton broth, there was prepared a bacterial solution with a bacterial cell population of 1 x 10^6 CFU/mi of the same bouillon. The bacterial solution was inoculated into the Muller-Hinton agar media each containing respectively one test agent and, after overnight incubation at 37°C, the minimum concentration that inhibited growth of the bacteria was determined and shown as MIC also in Table 1.
(§2) Staphylococcus aureus 167 and Staphylococcus aureus 195 used in the test were MRSA. CTM (cefotiam) and FMOX (flomoxef) were used as control agents.

[3] = test system: Citrobacter freundii ATCC 8090; experiment: MIC against standard strains (Test Example 1); format: cell-based; conditions: ATCC8090, Muller-Hinton agar, 37°C overnight
Description: as §1, §2

[4] = test system: Staphylococcus aureus 167; experiment: MIC against standard strains (Test Example 1); format: cell-based; conditions: Staphylococcus aureus 167 (MRSA); Muller-Hinton agar, 37°C overnight
Description: as §1, §2

[5] = test system: Psuedomonas aeruginosa IFO 3445; experiment: MIC against standard strains (Test Example 1); format: cell-based; conditions: Muller-Hinton agar, 37°C overnight
Description: as §1, §2

[6] = test system: Staphylococcus epidermidis IAM 1296; experiment: MIC against standard strains (Test Example 1); format: cell-based; conditions: IAM1296, Muller-Hinton agar, 37°C overnight
Description: as §1, §2

[7] = test system: Escherichia coli CSH2 (RE45); experiment: MIC against standard strains (Test Example 1); format: cell-based
Description: as §1, §2

[8] = test system: E. cloacae ATCC13407; experiment: MIC against standard strains (Test Example 3); format: cell-based; conditions: Enterobacter cloacae; E. cloacae ATCC13407 (Test Example 3); read-out: MIC
Outline: (§3)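 Overnight Mueller-Hinton broth cultures grown at 37°C were diluted to 1 x 10^6 CFU/ml in the same broth and inoculated onto Mueller-Hinton agar containing the test agent. After overnight incubation at 37°C, MIC was taken as the lowest concentration inhibiting growth.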

[9] = test system: C. freundii ATCC8090; experiment: MIC against standard strains (Test Example 3); format: cell-based; conditions: Citrobacter freundii; C. freundii ATCC8090 (Test Example 3); read-out: MIC
Outline: as §3

[10] = test system: A. faecalis ATCC3750; experiment: MIC against standard strains (Test Example 3); format: cell-based; conditions: Alcaligenes faecalis; A. faecalis ATCC3750 (Test Example 3); read-out: MIC
Outline: as §3

[11] = test system: M. Morganii IFO3848; experiment: MIC against standard strains (Test Example 3); format: cell-based; conditions: Morganella morganii; M. Morganii IFO3848 (Test Example 3); read-out: MIC
Outline: as §3

[12] = test system: K. pneumoniae IFO3317; experiment: MIC against standard strains (Test Example 3); format: cell-based; conditions: Klebsiella pneumoniae; K. pneumoniae IFO3317 (Test Example 3); read-out: MIC
Outline: as §3

[13] = test system: E. coli CSH2 (RK1); experiment: MIC against standard strains (Test Example 3); format: cell-based; conditions: Escherichia coli
Outline: as §3

[14] = test system: B. subtilis ATCC6633; experiment: MIC against standard strains (Test Example 3); format: cell-based; conditions: Bacillus subtilis; B. subtilis ATCC6633 (Test Example 3); read-out: MIC
Outline: as §3

[15] = test system: E. coli NIHJ JC-2; experiment: MIC against standard strains (Test Example 3); format: cell-based; conditions: Escherichia coli, NIHJJC2; E. coli NIHJ JC-2 (Test Example 3); read-out: MIC
Outline: as §3

[16] = test system: K. pneumoniae No. 42; experiment: MIC against standard strains (Test Example 3); format: cell-based; conditions: Klebsiella pneumoniae; K. pneumoniae No. 42 (Test Example 3); read-out: MIC
Outline: as §3

[17] = test system: S. aureus 209p JC-1; experiment: MIC against standard strains (Test Example 3); format: cell-based; conditions: Staphylococcus aureus; S. aureus 209p JC-1 (Test Example 3); read-out: MIC
Outline: as §3

[18] = test system: S. aureus Smith; experiment: MIC against standard strains (Test Example 3); format: cell-based; conditions: Staphylococcus aureus; S. aureus Smith (Test Example 3); read-out: MIC
Outline: as §3

[19] = test system: S. aureus 167; experiment: MIC against standard strains (Test Example 3); format: cell-based; conditions: Staphylococcus aureus; S. aureus 167 (MRSA) (Test Example 3); read-out: MIC
Outline: as §3

[20] = test system: P. mirabilis IFO3849; experiment: MIC against standard strains (Test Example 3); format: cell-based; conditions: Proteus mirabilis; P. mirabilis IFO3849 (Test Example 3); read-out: MIC
Outline: as §3

[21] = test system: S. epidemidis IAM1296; experiment: MIC against standard strains (Test Example 3); format: cell-based; conditions: S. epidemidis IAM1296 (Test Example 3); read-out: MIC
Outline: as §3

[22] = test system: S. marcescens IAM1184; experiment: MIC against standard strains (Test Example 3); format: cell-based; conditions: Serratia marcescens; S. marcescens IAM1184 (Test Example 3); read-out: MIC
Outline: as §3

[23] = test system: A. calcoaceticos T59; experiment: MIC against standard strains (Test Example 3); format: cell-based; conditions: A. calcoaceticos T59 (Test Example 3); read-out: MIC
Outline: as §3

[24] = test system: P. vulugaris OX-19; experiment: MIC against standard strains (Test Example 3); format: cell-based; conditions: P. vulugaris OX-19 (Test Example 3); read-out: MIC
Outline: as §3

[25] = test system: S. aureus 195; experiment: MIC against standard strains (Test Example 3); format: cell-based; conditions: Staphylococcus aureus; S. aureus 195 (MRSA) (Test Example 3); read-out: MIC
Outline: as §3

[26] = test system: M. luteus ATCC 9341; experiment: MIC against standard strains (Test Example 3); format: cell-based; conditions: Micrococcus luteus, ATCC9341; M. luteus ATCC 9341 (Test Example 3); read-out: MIC
Outline: as §3

[27] = test system: P. aeruginosa NCTC10490; experiment: MIC against standard strains (Test Example 3); format: cell-based; conditions: Pseudomonas aeruginosa; P. aeruginosa NCTC10490 (Test Example 3); read-out: MIC
Outline: as §3

[28] = test system: E. coli CSH2 (RE45); experiment: MIC against standard strains (Test Example 3); format: cell-based; conditions: Escherichia coli
Outline: as §3

CO[C@@]1(NC(=O)CSC(F)F)C(=O)N2C(C(=O)O)=C(CSc3nnnn3CCO)CO[C@@H]21 [FMOX, flomoxef, reference compound]
MIC50 ([1]; concentration inhibiting growth of 50% of the strains (Test Example 2)): 8.16 µg/mL (≈ 16.4 µM)
MIC90 ([1]; concentration inhibiting growth of 90% of the strains (Test Example 2)): 40.2 µg/mL (≈ 81 µM)
MIC [2]: 0.2 µg/mL (≈ 0.403 µM)
MIC [3]: 0.39 µg/mL (≈ 0.786 µM)
MIC [4]: 100 µg/mL (≈ 201 µM)
MIC [5]: > 100 µg/mL
MIC [6]: 0.2 µg/mL (≈ 0.403 µM)
MIC [7]: 0.1 µg/mL (≈ 0.201 µM)
MIC [8]: 25 µg/mL (≈ 50.4 µM)
MIC [9]: 0.39 µg/mL (≈ 0.786 µM)
MIC [10]: 0.1 µg/mL (≈ 0.201 µM)
MIC [11]: 0.39 µg/mL (≈ 0.786 µM)
MIC [12]: 0.025 µg/mL (≈ 0.0504 µM)
MIC [13]: 0.05 µg/mL (≈ 0.101 µM)
MIC [14]: 0.2 µg/mL (≈ 0.403 µM)
MIC [15]: 0.05 µg/mL (≈ 0.101 µM)
MIC [16]: 0.05 µg/mL (≈ 0.101 µM)
MIC [17]: 0.39 µg/mL (≈ 0.786 µM)
MIC [18]: 0.39 µg/mL (≈ 0.786 µM)
MIC [19]: 50 µg/mL (≈ 101 µM)
MIC [20]: 0.2 µg/mL (≈ 0.403 µM)
MIC [21]: 0.2 µg/mL (≈ 0.403 µM)
MIC [22]: 0.2 µg/mL (≈ 0.403 µM)
MIC [23]: 50 µg/mL (≈ 101 µM)
MIC [24]: 0.39 µg/mL (≈ 0.786 µM)
MIC [25]: 3.13 µg/mL (≈ 6.3 µM)
MIC [26]: 0.05 µg/mL (≈ 0.101 µM)
MIC [27]: > 100 µg/mL
MIC [28]: 0.05 µg/mL (≈ 0.101 µM)
